Source: patent US20260015359A1, “2-(1,8-DIETHYL-1,3,4,9-TETRAHYDROPYRANO[3,4-B]INDOL-1-YL)-1-(PIPERIDIN-1-YL)ETHAN-1-ONE ETODOLAC DERIVATIVE AS EUKARYOTIC ELONGATION FACTOR 2 KINASE (EEF2K) INHIBITOR FOR TARGETED CANCER THERAPY” (BAHCESEHIR UNIVERSITESI, priority 2023, published 2026)

Tests used:
eEF2K [1] = biological target: T1, eEF2K (Homo sapiens, UniProt O00418); assay: Western blot analysis of eEF2K activity (p-EF2 Thr56) in MDA-MB-231 cells; type: cell-based; settings: for eEF2K inhibition potential: western blot, 2.5 to 20 micromolar
T1 sequence (O00418 1-725): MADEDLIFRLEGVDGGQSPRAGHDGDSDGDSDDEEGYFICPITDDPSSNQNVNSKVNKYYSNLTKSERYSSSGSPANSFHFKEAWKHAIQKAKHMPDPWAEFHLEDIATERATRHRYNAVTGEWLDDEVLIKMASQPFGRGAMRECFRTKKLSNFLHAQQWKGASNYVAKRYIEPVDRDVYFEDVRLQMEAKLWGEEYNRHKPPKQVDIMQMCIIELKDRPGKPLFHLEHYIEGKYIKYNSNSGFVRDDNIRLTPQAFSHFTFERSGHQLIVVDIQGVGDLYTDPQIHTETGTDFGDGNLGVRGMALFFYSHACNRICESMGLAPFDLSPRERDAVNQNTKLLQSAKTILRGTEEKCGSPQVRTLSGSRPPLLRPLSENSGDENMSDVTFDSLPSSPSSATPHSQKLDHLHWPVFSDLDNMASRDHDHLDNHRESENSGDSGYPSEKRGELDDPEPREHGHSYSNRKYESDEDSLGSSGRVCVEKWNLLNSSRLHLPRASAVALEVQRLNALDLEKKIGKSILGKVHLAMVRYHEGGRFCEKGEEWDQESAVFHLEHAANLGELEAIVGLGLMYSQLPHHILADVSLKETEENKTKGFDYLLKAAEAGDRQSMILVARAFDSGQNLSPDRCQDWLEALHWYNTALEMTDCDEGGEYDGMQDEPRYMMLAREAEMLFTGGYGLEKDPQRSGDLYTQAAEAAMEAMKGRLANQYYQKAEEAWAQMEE
Protocol: MeOH: distilled water by volume (%) (70:30) was used as the mobile phase for HPLC analysis for the inventive compound and the flow rate was set to 1 mL min^−1. Triple negative breast cancer (TNBC) cell lines (ER-, PR- and HER2-) MDA-MB-231 cells were purchased from the American Type Culture Collection (ATCC) (Manassas, VA, USA). MDA-MB-231 cells were cultured in Dulbecco's modified Eagle's medium (DMEM)/F12 supplemented with 10% FBS (Fetal Bovine Serum) and 100 U mL^−1 penicillin and streptomycin. Specific antibodies (p-EF2 (Thr56) (2331S), eEF2 (2332S), eEF2K (3692S) and GAPDH (5174S)) were purchased from Cell Signaling Technology (CST).
Western blot analysis was carried out according to previously reported studies to evaluate the eEF2K inhibition activity for the synthesized compounds. The synthesized compound was applied to MDA-MB-231 cells in the range of various concentrations from 2.5 to 20 micromolar for 2 h treatment. The expression levels of p-EF2 (Thr56) inhibition and eEF2K activity were determined by using related antibodies such as p-EF2 (Thr56), eEF2 and eEF2K. Glyceraldehyde 3-phosphate dehydrogenase (GAPDH) was used as a loading control.
To determine the effects of the synthesized compounds in inhibiting eEF2K activity in TNBC, MDA-MB-231 cells, we performed western blot analysis at concentrations ranging from 2.5 micromolar to 20 micromolar in a dose-dependent manner. eEF2K inhibition was detected by decreased phosphorylation levels of EF2 (p-EF2-Thr-56), a direct downstream substrate of the enzyme.

cancer cells = settings: literature; cited from earlier work
eEF2K [2] = biological target: T1, eEF2K; settings: literature; cited from earlier work

| SMILES | eEF2K inhibition potential (eEF2K [1]) | eEF2K inhibition (reported) (eEF2K [2]) | other results |
| --- | --- | --- | --- |
| CCc1cccc2c3c([nH]c12)C(CC)(CC(=O)O)OCC3 (racemic) [Etodolac, (R,S)-2-[1,8-diethyl-1,3,4-tetrahydropyrano [3,4-b]indol-1-yl]acetic acid] | did not show any inhibition potential | – | – |
| CCn1c(=O)c2cc(C(N)=O)c(N)nc2n(C2CC2)c1=O [A484954] | – | – | dose showing inhibition effect in cancer cells (cancer cells): 75 µM |
| CCc1cccc2c3c([nH]c12)C(CC)(CC(=O)N1CCCCC1)OCC3 (centres unmarked) [Inventive compound, 2-(1,8-diethyl-1,3,4,9-tetrahydropyrano [3,4-b]indol-1-yl)-1-(piperidin-1-yl) ethan-1-one] | high inhibition potential | – | eEF2K inhibition (reduced levels of p-EF2) (eEF2K [1]; 2.5 micromolar, compared to etodolac (EC)): marked inhibition; inhibition of phospho-eEF2 (Thr56) (eEF2K [1]; 20 micromolar, 2 hours treatment): highest inhibition |
| CCCCCCCCCCCCCCCCn1cc[n+](Cc2ccccc2)c1C.[I-] [NH125] | – | does not inhibit EF2K | – |
| Cc1cc(C=C2C(=O)C=CC2=O)cc(C)c1O [TX1918] | – | did not show significant eEF2K inhibition | concentration reported to inhibit eEF2K (eEF2K [2]): 10 µM |
